Numbers after ± are expanded uncertainties.
Assay: mn = molality of the nth substance listed, in mol/kg
Conditions: 101 kPa, Liquid; for viscosity: Falling or rolling sphere viscometry; for speed of sound: Frequency=3 MHz, Single path-length method; for mass density: Vibrating tube method

C[n+]1ccn(CCCCn2cc[n+](C)c2)c1.[Br-].[Br-] + O
Conditions	mass density [kg/m3]	speed of sound [m/s]	viscosity [mPa·s]
293.15 K, m1 = 0.04944	1004.66 ± 0.11	1489.8 ± 1	1.026 ± 0.021
293.15 K, m1 = 0.06711	1006.89 ± 0.11	1492 ± 1	1.034 ± 0.021
293.15 K, m1 = 0.07912	1008.4 ± 0.11	1493.5 ± 1	1.039 ± 0.021
293.15 K, m1 = 0.0927	1010.06 ± 0.11	1495.1 ± 1	1.044 ± 0.021
293.15 K, m1 = 0.1021	1011.22 ± 0.11	1496.2 ± 1	1.049 ± 0.021
298.15 K, m1 = 0.04944	1003.45 ± 0.11	1503.2 ± 1	0.914 ± 0.021
298.15 K, m1 = 0.06711	1005.68 ± 0.11	1505.2 ± 1	0.921 ± 0.021
298.15 K, m1 = 0.07912	1007.18 ± 0.11	1506.6 ± 1	0.926 ± 0.021
298.15 K, m1 = 0.0927	1008.82 ± 0.11	1508 ± 1	0.931 ± 0.021
298.15 K, m1 = 0.1021	1009.97 ± 0.11	1509 ± 1	0.935 ± 0.021
303.15 K, m1 = 0.04944	1002.01 ± 0.11	1515.4 ± 1	0.821 ± 0.021
303.15 K, m1 = 0.06711	1004.22 ± 0.11	1517.1 ± 1	0.828 ± 0.021
303.15 K, m1 = 0.07912	1005.71 ± 0.11	1518.5 ± 1	0.833 ± 0.021
303.15 K, m1 = 0.0927	1007.35 ± 0.11	1519.8 ± 1	0.839 ± 0.021
303.15 K, m1 = 0.1021	1008.49 ± 0.11	1520.7 ± 1	0.842 ± 0.021
308.15 K, m1 = 0.04944	1000.35 ± 0.11	1524.7 ± 1	0.744 ± 0.021
308.15 K, m1 = 0.06711	1002.54 ± 0.11	1526.3 ± 1	0.751 ± 0.021
308.15 K, m1 = 0.07912	1004.03 ± 0.11	1527.3 ± 1	0.756 ± 0.021
308.15 K, m1 = 0.0927	1005.67 ± 0.11	1528.9 ± 1	0.762 ± 0.021
308.15 K, m1 = 0.1021	1006.8 ± 0.11	1529.5 ± 1	0.765 ± 0.021
313.15 K, m1 = 0.04944	998.497 ± 0.11	1534.1 ± 1	0.677 ± 0.021
313.15 K, m1 = 0.06711	1000.68 ± 0.11	1535.5 ± 1	0.683 ± 0.021
313.15 K, m1 = 0.07912	1002.15 ± 0.11	1536.5 ± 1	0.688 ± 0.021
313.15 K, m1 = 0.0927	1003.79 ± 0.11	1537.8 ± 1	0.692 ± 0.021
313.15 K, m1 = 0.1021	1004.91 ± 0.11	1538.5 ± 1	0.696 ± 0.021

C[n+]1ccn(CCCn2cc[n+](C)c2)c1.[Br-].[Br-] [1,3-bis[3-methylimidazolium-1-yl]propane dibromide] + O
Conditions	mass density [kg/m3]	speed of sound [m/s]	viscosity [mPa·s]
293.15 K, m1 = 0.03423	1002.81 ± 0.11	1486.3 ± 1	1.019 ± 0.021
293.15 K, m1 = 0.04998	1004.86 ± 0.11	1488.1 ± 1	1.025 ± 0.021
293.15 K, m1 = 0.06131	1006.3 ± 0.11	1489.3 ± 1	1.029 ± 0.021
293.15 K, m1 = 0.07119	1007.55 ± 0.11	1490.3 ± 1	1.033 ± 0.021
293.15 K, m1 = 0.08049	1008.72 ± 0.11	1491.3 ± 1	1.037 ± 0.021
293.15 K, m1 = 0.089	1009.76 ± 0.11	1492.2 ± 1	1.04 ± 0.021
293.15 K, m1 = 0.09492	1010.48 ± 0.11	1492.8 ± 1	1.042 ± 0.021
298.15 K, m1 = 0.03423	1001.61 ± 0.11	1499.9 ± 1	0.906 ± 0.021
298.15 K, m1 = 0.04998	1003.65 ± 0.11	1501.6 ± 1	0.912 ± 0.021
298.15 K, m1 = 0.06131	1005.1 ± 0.11	1502.6 ± 1	0.917 ± 0.021
298.15 K, m1 = 0.07119	1006.34 ± 0.11	1503.5 ± 1	0.921 ± 0.021
298.15 K, m1 = 0.08049	1007.49 ± 0.11	1504.6 ± 1	0.924 ± 0.021
298.15 K, m1 = 0.089	1008.53 ± 0.11	1505.4 ± 1	0.927 ± 0.021
298.15 K, m1 = 0.09492	1009.24 ± 0.11	1505.8 ± 1	0.929 ± 0.021
303.15 K, m1 = 0.03423	1000.19 ± 0.11	1512.3 ± 1	0.814 ± 0.021
303.15 K, m1 = 0.04998	1002.22 ± 0.11	1513.9 ± 1	0.82 ± 0.021
303.15 K, m1 = 0.06131	1003.66 ± 0.11	1514.9 ± 1	0.824 ± 0.021
303.15 K, m1 = 0.07119	1004.89 ± 0.11	1515.8 ± 1	0.828 ± 0.021
303.15 K, m1 = 0.08049	1006.04 ± 0.11	1516.6 ± 1	0.831 ± 0.021
303.15 K, m1 = 0.089	1007.06 ± 0.11	1517.5 ± 1	0.835 ± 0.021
303.15 K, m1 = 0.09492	1007.78 ± 0.11	1518 ± 1	0.838 ± 0.021
308.15 K, m1 = 0.03423	998.558 ± 0.11	1521.8 ± 1	0.737 ± 0.021
308.15 K, m1 = 0.04998	1000.57 ± 0.11	1523.2 ± 1	0.743 ± 0.021
308.15 K, m1 = 0.06131	1002.01 ± 0.11	1524 ± 1	0.747 ± 0.021
308.15 K, m1 = 0.07119	1003.23 ± 0.11	1524.8 ± 1	0.751 ± 0.021
308.15 K, m1 = 0.08049	1004.38 ± 0.11	1525.7 ± 1	0.755 ± 0.021
308.15 K, m1 = 0.089	1005.39 ± 0.11	1526.4 ± 1	0.758 ± 0.021
308.15 K, m1 = 0.09492	1006.11 ± 0.11	1526.8 ± 1	0.76 ± 0.021
313.15 K, m1 = 0.03423	996.725 ± 0.11	1531.6 ± 1	0.675 ± 0.021
313.15 K, m1 = 0.04998	998.73 ± 0.11	1532.7 ± 1	0.679 ± 0.021
313.15 K, m1 = 0.06131	1000.15 ± 0.11	1533.5 ± 1	0.683 ± 0.021
313.15 K, m1 = 0.07119	1001.38 ± 0.11	1534.1 ± 1	0.689 ± 0.021
313.15 K, m1 = 0.08049	1002.51 ± 0.11	1534.8 ± 1	0.686 ± 0.021
313.15 K, m1 = 0.089	1003.53 ± 0.11	1535.5 ± 1	0.689 ± 0.021
313.15 K, m1 = 0.09492	1004.24 ± 0.11	1535.8 ± 1	0.691 ± 0.021
